The term IC50 denotes the midpoint of a concentration-inhibition curve.

The test system of experiment [1] is Human lung cancer cell line Calu-3. The experiment is described as follows: Cell proliferation inhibition test upon SLFN11 knockdown, Calu-3. Format: cell-based. On the procedure:
(§1) Human lung cancer cell line Calu-3 was obtained from ATCC and used for evaluation. Calu-3 cells suspended at 2×10^3 cells/mL in a MEM medium containing a non-essential amino acid solution, a pyruvic acid solution and 10% bovine fetal serum were seeded in a 10 cm cell culture dish at 10 mL/dish. Twenty-four hours after seeding, 100 pmol of ON-TARGETplus SLFN11 siRNA (Dharmacon Inc.) or ON-TARGETplus Non-targeting Control Pool (Dharmacon Inc.) and 30 μL of Lipofectamine™ RNAiMAX Transfection Reagent (Thermo Fisher Scientific Inc.) were suspended in 1 mL of Opti-MEM medium, and the entire amount of the suspension was added to the medium. After 72 hours, the medium was removed and the dish was washed with PBS, then the cells were dissociated and recovered from the dish using 1 mL of TrypLE™ Express. The recovered cells were suspended at 5×10^4 cells/mL in a MEM medium containing a non-essential amino acid solution, a pyruvic acid solution and 10% bovine fetal serum, and seeded in a 96-well cell culture plate at 100 μL/well. Twenty-four hours after seeding, the medium was replaced with a medium containing 100 nM, 33 nM, 11 nM, 3.7 nM, 1.2 nM, 0.41 nM, 0.13 nM, 0.045 nM, or 0 nM of compound (1) or antibody-drug conjugate (1) at 100 μL/well. The molar concentration of antibody-drug conjugate (1) was calculated by setting the average molecular weight to 150,000. Cells were all cultured at 37° C. under 5% CO2. After 72 hours from the medium replacement, ATPlite 1 step detection system (PerkinElmer Inc.) was added at 100 μL/well. The wells were incubated at room temperature for 10 minutes, then the luminescence intensity of each well was measured.
(§2) The cell growth inhibition rate (%) at each condition was calculated using the following calculation formula: Cell growth inhibition rate (%)=100×(1−T/C) • T: Average luminescence intensity of each well to which specimen was added • C: Average luminescence intensity of each well to which 0 nM specimen was added
The 50% inhibitory concentration at each condition was calculated by fitting to the following calculation formula: Cell viability (%)=(Emax−Emin)×Specimen concentration^γ/((Emax−50)/(50−Emin)×IC50^γ+Specimen concentration^γ)+Emin • Emax: maximum cell growth inhibition rate (%) • Emin: minimum cell growth inhibition rate (%) • IC50: 50% inhibitory concentration • γ: Hill coefficient
(§3) The fitting to the calculation formula was performed using SAS Systems Release 9.2 (SAS Institute Inc.).

For experiment [2], the system named is Human breast cancer cell line HCC38. The experiment is described as follows: Cell proliferation inhibition test upon SLFN11 knockdown, HCC38. The format is cell-based. Conditions: for Cell proliferation inhibitory effect upon SLFN11 knockdown: HCC38 cell lines, SLFN11 siRNA vs Non-targeting Control; for Fold change (SLFN11/Non-targeting Control): ratio of IC50. On the procedure:
as §1, with “breast” for “lung”, “HCC38” for “Calu-3”, “2×10^5” for “2×10^3”, “RPMI-1640” for “a MEM”, “containing” for “containing a non-essential amino acid solution, a pyruvic acid solution and”
as §2
The 50% inhibitory concentration at each condition was calculated by fitting to the following calculation formula: Cell viability (%)=(Emax−Emin)×Specimen concentration^γ/((max−50)/(50−Emin)×IC50^γ+Specimen concentration^γ)+Emin • Emax: maximum cell growth inhibition rate (%) • Emin: minimum cell growth inhibition rate (%) • IC50: 50% inhibitory concentration • γ: Hill coefficient
as §3

Read-outs that look alike come from different tables or passages of the source.

For the molecule `CC[C@@]1(O)C(=O)OCc2c1cc1n(c2=O)Cc2c-1nc1cc(F)c(C)c3c1c2[C@@H](NC(=O)CO)CC3` [Compound (1)], the “Cell proliferation inhibitory effect upon SLFN11 knockdown” value in experiment [1] (Calu-3 cell lines, SLFN11 siRNA vs Non-targeting Control) is “attenuated by SLFN11 knockdown”; in experiment [2] it was “attenuated by SLFN11 knockdown”. Moreover, the “Fold change (SLFN11/Non-targeting Control)” value was above 4.8 in experiment [1] (Calu-3 cells, ratio of IC50) and 2.6 in experiment [2] (HCC38 cells). In addition, the half-inhibitory concentration (IC50) in experiment [1] (Homo sapiens, Calu-3, 72 h, read-out: IC50 (nM) Non-targeting Control Pool) is 20.9 nM; in experiment [1] (Homo sapiens, Calu-3, 72 h, read-out: IC50 (nM) SLFN11 siRNA), above 100 nM; in experiment [2] (Homo sapiens, HCC38, 72 h, read-out: IC50 (nM) Non-targeting Control Pool) it was 1.6 nM; in experiment [2] (Homo sapiens, HCC38, 72 h, read-out: IC50 (nM) SLFN11 siRNA) it was 4.2 nM.

B1: antibody-drug conjugate (1): humanized anti-hTROP2 antibody (SEQ ID NO: 1 residues 20-470, SEQ ID NO: 2 residues 21-234) conjugated to the exatecan-derivative drug-linker via a thioether bond (conjugate, chains of the INN, looked up)
VH: QVQLVQSGAEVKKPGASVKVSCKASGYTFTTAGMQWVRQAPGQGLEWMGWINTHSGVPKYAEDFKGRVTISADTSTSTAYLQLSSLKSEDTAVYYCARSGFGSSYWYFDVWGQGTLVTVSS
VL: DIQMTQSPSSLSASVGDRVTITCKASQDVSTAVAWYQQKPGKAPKLLIYSASYRYTGVPSRFSGSGSGTDFTLTISSLQPEDFAVYYCQQHYITPLTFGQGTKLEIK
modifications: exatecan-derivative drug-linker
With B1, the IC50 is above 100 nM in experiment [1] (Calu-3 cells, Non-targeting Control Pool, 72 hours, ATPlite, read-out: IC50 (nM) Non-targeting Control Pool); above 100 nM in experiment [1] (Calu-3 cells, SLFN11 siRNA knockdown, 72 hours, ATPlite, read-out: IC50 (nM) SLFN11 siRNA); 56.7 nM in experiment [2] (HCC38 cells, Non-targeting Control Pool, 72 hours, ATPlite, read-out: IC50 (nM) Non-targeting Control Pool); above 100 nM in experiment [2] (HCC38 cells, SLFN11 siRNA knockdown, 72 hours, ATPlite, read-out: IC50 (nM) SLFN11 siRNA). For the same molecule, in experiment [2], the “Cell proliferation inhibitory effect upon SLFN11 knockdown” value is on record as “attenuated by SLFN11 knockdown”. In addition, the “Fold change (SLFN11/Non-targeting Control)” value in experiment [2] (HCC38 cells) is reported as above 1.8.

The values above are taken from patent US12312641B2, “Sensitivity marker for antibody-drug conjugate” (priority 2018, dated 2025).
